The test system of one test is inflammation. The test is described as follows: Carrageenin Assay. As to conditions: Rattus norvegicus, po, carrageenin-injected hind paws of rats, read-out: Percent Inhibition; for inhibition in vivo at 50 mg/kg: 50 mg/kg orally by gavage. The test is classed as in vivo. Here is the method: The compounds were evaluated for antiinflammatory activity in the test method described by C.A. Winter, Proc. Soc. Exp. Biol. Med., 111, 544 (1962). In this test, inflammation is created by injecting carrageenin into the hind paws of rats. Test compounds are administered prior to injection to determine percent inhibition of the subsequent inflammation in comparison with control animals.
Background: The carrageenan paw model is a standard test of acute inflammation.

Test [1] concerns adjuvant-induced arthritis. Kind of test: Developing Adjuvant-Induced Arthritis Test in Rats. The class given is in vivo, male Lewis-Wistar rats. As to conditions: Rattus norvegicus, po, 720 h, AUC of uninjected paw volumes, Days 16 through 30, read-out: % Inhibition of Uninjected Paw Volume Inflammation; for inhibition in vivo at 50 mg/kg: 50 mg/kg P.O. x 29.
For test [2], the system named is Collagen-Induced Arthritis. Kind of test: Collagen-Induced Arthritis Assay. The test is classed as in vivo, inbred Lewis male rats. As to conditions: 5 days per week, hindpaw volume. Here is the method: Type II collagen was isolated from bovine articular cartilage by the method of Strawich and Nimni [Biochemistry, 10, 3905 (1971)]. The collagen was dissolved in 0.1 M acetic acid and stored at -20°C. Type II collagen solution was diluted to 2 mg/ml concentration and emulsified thoroughly with an equal volume of incomplete Freund's adjuvant (ICFA). The emulsion containing approximately 0.5 mg of collagen was injected intradermally on day 0 to groups of 6 inbred Lewis male rats (Charles River Breeders; 170-200 g) at various sites in the dorsal area. The hindpaw volumes of each rat were measured and recorded three times a week throughout the test period to assess the inflammatory reaction. The test group animals received compounds under test as suspensions in carboxymethylcellulose vehicle, by oral gavage, 5 days per week (Monday-Friday), beginning on day 1. Control animals received vehicle without a test compound. At the end of the test (day 28 or 30), the blood of these animals was drawn by cardiac puncture and the serum anti-type II collagen antibody levels were estimated by passive hemaglutination technique, using glutaraldehyde treated sheep red cells, to which type II collagen is conjugated [Avrameas et al., Immunochemistry, 6, 67 (1969); Andriopoulos et al., Arth. Rheum., 19, 613 (1976)]. The cellular response or delayed-type hypersensitivity response to type II collagen was measured by the radiometric ear index assay [Kostiala, Immunology, 33, 561 (1977)]. In certain experiments, the bone damage occurring because of immunization with type II collagen and the effects of drugs were determined from the radiographs of the hind-paws of two or three representative animals from each group. Injections of ICFA without collagen II were employed in some rats as a negative control; these rats received only carboxymethycellulose vehicle during the test.
The % inhibition was calculated according to the following formula: % inhibition = [1-(Vt - Vv)/(Vc - Vv)] X 100 [formula] where Vt is the hindpaw volume of a compound-treated animal (test group), Vc is the hindpaw volume of a non-compound-treated animal (carboxymethylcellulose vehicle only-the control group), and Vv is the hindpaw volume of a vehicle (carboxymethylcellulose) treated animal which received ICFA with no collagen II (negative control group).

The test system of the next test is Dystrophic mice (dy/dy). Kind of test: Muscular Dystrophy Animal Model. The class given is in vivo. Here is the method: Dystrophic mice (dy/dy) were obtained from Jackson Laboratories after weaning (approximately 21 days) and treatment with the compounds shown in Table V was begun at the first sign of dystrophy. The compounds that were tested were administered in the diet and lifespan was measured during the course of treatment. The food and water sources were located in different parts of the cage requiring the animals to walk from the food source to the water source to survive.

Test [3] relates to ischemia-induced brain damage in the hippocampal CA1 region. The test is described as follows: Stroke model in rats. As to conditions: mean ± standard error, scale 0 = no damage to 3 = severe damage of CA1 layer. The class given is in vivo, Male Wistar rats. An excerpt:
Strokes were produced in rats by occluding the four arteries that supply blood to the brain according to the following procedure. Male Wistar rats were anesthetized with Metofane and placed into a stereotaxic instrument. A longitudinal incision was made on the dorsal surface of the neck. The neck muscles were reflected to expose the dorsal surface of the spinal column. The two vertebral arteries were exposed where they pass through the first cervical vertebra. Both arteries were permanently occluded by the application of electrocautery. After coagulation of the vertebral arteries, the rat was removed from the stereotaxic instrument and the surgical wound was sutured. Two longitudinal incisions were then made on the ventral surface of the neck. The two common carotid arteries were exposed and dissected free from surrounding nerves and connective tissue. An atraumatic clasp, fabricated mainly from silicon rubber tubing, was placed around each carotid artery in a manner such that the vessel was not traumatized or occluded. The surgical wounds were then closed. The atraumatic clasps were designed in such a manner that they could be tightened to occlude the carotid arteries by pulling on a small silastic thread that was allowed to protrude from the wound. Circulation to the brain through the carotids could be restored by relieving the tension on the silastic threads. After the surgery, the rats were allowed to recover for 24 hours.
On the day of testing, compounds were suspended in 2% acacia and were administered orally at various times before stroke induction. Strokes (cerebral ischemia) were induced by tightening the clasps around the carotids for a period of 30 minutes. During this time, rats in which strokes had successfully been produced lost the righting reflex and became unresponsive to stimuli. After 30 minutes of ischemia, tension on the clasps was removed and blood flow to the brain restored. Rats were again treated with compounds on the morning after the stroke. On the third day after the stroke the animals received an overdose of barbituate anesthetic, and the brain was perfused in situ with 10% neutral, buffered formalin. After perfusion with amounts of formalin adequate to fix the brain, the brains were removed and stored in 10% formalin until histological sections could be prepared.
One of the areas of the brain that is most susceptible to ischemia induced damage both in the rat and the human is the CA1 pyramidal cell layer of the hippocampus. In animals that remain unresponsive for the 30 minute period of ischemia, the CA1 pyramidal cell layer is completely destroyed. This layer of cells was examined microscopically in histological sections prepared from the hippocampus. Brain damage was rated according to the following scale: 0 = no damage, completely intact cell layer 1 = mild damage, one-third of CA1 layer dead 2 = moderate damage, two-thirds of CA1 layer dead 3 = severe damage, complete destruction of CA1 layer
Damage in 10-12 sections from each brain was assessed in order to obtain an accurate estimate of damage. An average damage score was calculated for each treatment group. Scores from treated groups were compared statistically with scores from control groups which received only the vehicle (2% acacia) that was used to suspend the compounds. The level of significance was determined using Student's "t-test".

The mark [4] stands for this setting: 0.03 percent by weight of compound in diet.
[5] abbreviates: 0.08 percent by weight of compound in diet.
The mark [6] stands for this setting: 0.3 percent by weight of compound in diet.
The mark [7] stands for this setting: 100 mg/kg given orally as a suspension in 2% acacia.

Values joined by “and” are separate entries in the source; they are usually repeats but may differ in a detail not shown here. Equal entries are not always repeated.

The results in this text go back to patent publication EP0391644B1, “Aryl-substituted rhodanine derivatives” (ELI LILLY AND COMPANY, priority 1989, dated 1990).

Broadly, the % inhibition is the percentage by which the read-out fell short of the control. A lower % inhibition goes with a response near the control.

Turning to `CC(C)(C)c1cc(C=C2SC(=S)N(C3CC3)C2=O)cc(C(C)(C)C)c1O` [Example 18, 5-{[3,5-bis(1,1-dimethylethyl)-4-hydroxyphenyl]methylene}-3-cyclopropyl-2-thioxo-4-thiazolidinone], the inhibition in vivo at 50 mg/kg in the test on inflammation came out at 22%.

Consider `COC(=O)N1CSC(=Cc2cc(C(C)(C)C)c(O)c(C(C)(C)C)c2)C1=O` [Example 4, 5-{[3,5-bis(1,1-dimethylethyl)-4-hydroxyphenyl]methylene}-4-oxo-3-thiazolidinecarboxylic acid, methyl ester], for which the inhibition in vivo at 50 mg/kg in test [1] is 23%; with inflammation it was 65%. In addition, the “% inhibition” value in test [2] (50 mg/kg by oral gavage) worked out at 5%.

With `CN(C)N1CSC(=Cc2cc(C(C)(C)C)c(O)c(C(C)(C)C)c2)C1=O` [Example 21, 5-{[3,5-bis(1,1-dimethylethyl)-4-hydroxyphenyl]methylene}-3-dimethylamino-4-thiazolidinone], the “Average Life Span” value with Dystrophic mice (dy/dy) (setting [4]) is 151 days. For the same molecule, the “Damage Score” value in test [3] (50 mg/kg given orally as a suspension in 2% acacia) was determined as 1.9 ± 0.3. In addition, the inhibition in vivo at 50 mg/kg in test [1] was 81%.

For `CC(C)(C)c1cc(C=C2SCNC2=O)cc(C(C)(C)C)c1O` [Example 2, 5-{[3,5-bis(1,1-dimethylethyl)-4-hydroxyphenyl]methylene}-4-thiazolidinone], the “Average Life Span” value is 57 days with Dystrophic mice (dy/dy) (setting [4]); 116 days and 73 days in the test on Dystrophic mice (dy/dy) (setting [5]); 108 days in the test on Dystrophic mice (dy/dy) (0.1 percent by weight of compound in diet); 74 days with Dystrophic mice (dy/dy) (setting [6]). Further, the values for the inhibition in vivo at 50 mg/kg (in test [1]; in the test on inflammation) were 81% and 46%, respectively. The “% inhibition” value was 91% and 50% in test [2] (30 mg/kg by oral gavage); 100% in test [2] (50 mg/kg by oral gavage).

For `CCN1CSC(=Cc2cc(C(C)(C)C)c(O)c(C(C)(C)C)c2)C1=O` [Example 14, 5-{[3,5-Bis(1,1-dimethylethyl)-4-hydroxyphenyl]methylene}-3-ethyl-4-thiazolidinone], the inhibition in vivo at 50 mg/kg in test [1] worked out at 6%; with inflammation it was 43%.

As for `CC(C)(C)c1cc(C=C2SCOC2=O)cc(C(C)(C)C)c1O` [Example 17, 4-{[3,5-bis(1,1-dimethylethyl)-4-hydroxyphenyl]methylene}-1,3-oxothiolan-5-one], the “Average Life Span” value in the test on Dystrophic mice (dy/dy) (setting [4]) amounted to 112 days. Besides, the inhibition in vivo at 50 mg/kg in test [1] came to 61%; with inflammation, 18%.

Consider `CCCCN1CSC(=Cc2cc(C(C)(C)C)c(O)c(C(C)(C)C)c2)C1=O` [Example 16, 5-{[3,5-bis(1,1-dimethylethyl)-4-hydroxyphenyl]methylene}-3-butyl-4-thiazolidinone], for which the results for the inhibition in vivo at 50 mg/kg (in test [1]; in the test on inflammation) were 18% and 40%, respectively.

For the molecule `CN1CSC(=Cc2cc(C(C)(C)C)c(O)c(C(C)(C)C)c2)C1=O` [Example 10, 5-{[3,5-bis(1,1-dimethylethyl)-4-hydroxyphenyl]methylene}-3-methyl-4-thiazolidinone], the “Average Life Span” value with Dystrophic mice (dy/dy) (setting [4]) was 93 days and 112 days and 90 days and 80 days and 110 days; in the test on Dystrophic mice (dy/dy) (setting [5]), 45 days and 67 days; in the test on Dystrophic mice (dy/dy) (setting [6]) it was 83 days. Besides, in test [3] (setting [7]), the “Damage Score” value is recorded as 0.75 ± 0.26 (p<0.02). Besides, in test [1], the inhibition in vivo at 50 mg/kg was 57%.

In the case of `CC(C)(C)c1cc(CC2SCNC2=O)cc(C(C)(C)C)c1O` (centres unmarked) [Example 3, 5-{[3,5-bis(1,1-dimethylethyl)-4-hydroxyphenyl]methyl}-4-thiazolidinone], the inhibition in vivo at 50 mg/kg was determined as 10% in test [1] and 12% with inflammation. Also, in test [2] (50 mg/kg by oral gavage), the “% inhibition” value came out at 79%.

As to `CC(C)(C)c1cc(C=C2SC(=S)NC2=O)cc(C(C)(C)C)c1O` [Example 1, 5-{[3,5-bis(1,1-dimethylethyl)-4-hydroxyphenyl]-methylene}-2-thioxo-4-thiazolidinone], in test [1], the inhibition in vivo at 50 mg/kg was 41%. Further, in the test on inflammation (30 mg/kg orally by gavage), the inhibition in vivo at 30 mg/kg was 67%. The “% inhibition” value in test [2] (50 mg/kg by oral gavage) was 100% and 53%.

Consider `CC(C)(C)c1cc(C=C2SCN(CCO)C2=O)cc(C(C)(C)C)c1O` [Example 35, 5-{[3,5-bis(1,1-dimethylethyl)-4-hydroxyphenyl]methylene}-3-(2-hydroxyethyl)-4-thiazolidinone], for which the “Average Life Span” value with Dystrophic mice (dy/dy) (0.05 percent by weight of compound in diet) worked out at 107 days. Also, the “Damage Score” value in test [3] (setting [7]) was 0.9 ± 0.4 (p<0.001). In addition, in test [1] (75 mg/kg P.O. x 29), the inhibition in vivo at 75 mg/kg turned out to be 86%.

For `CCCN1CSC(=Cc2cc(C(C)(C)C)c(O)c(C(C)(C)C)c2)C1=O` [Example 15, 5-{[3,5-bis(1,1-dimethylethyl)-4-hydroxyphenyl]methylene}-3-propyl-4-thiazolidinone], the inhibition in vivo at 50 mg/kg in test [1] was 40%; in the test with inflammation it was 42%.
